Values after ≈ are worked out from the molar mass of the structure shown. One block for each compound: values may come before it.
What was measured:
Assay in all cases: ≥ marks a high value that may be exact or a test limit, other limits are often not marked, values filed in µg/mL are converted to µM
[1] = tested on: Cryptococcus neoformans ATCC 32045
[2] = tested on: Escherichia coli ATCC 2592
[3] = tested on: Candida albicans ATCC 10231
[4] = tested on: Staphylococcus aureus ATCC 33591
[5] = tested on: Pseudomonas aeruginosa ATCC 10145
[6] = tested on: Staphylococcus xylosus
[7] = tested on: Klebsiella pneumoniae CCRC 10694
[8] = tested on: Escherichia coli JM109
[9] = tested on: Salmonella typhimurium CCRC 12947
[10] = tested on: Staphylococcus aureus CCRC 12652
[11] = tested on: Lactobacillus delbrueckii subsp. bulgaricus
[12] = tested on: Pseudomonas aeruginosa
[13] = tested on: Enterococcus faecium
[14] = tested on: Citrobacter koseri
[15] = tested on: Bifidobacterium adolescentis
[16] = tested on: Salmonella enterica
[17] = tested on: Vibrio parahaemolyticus CCRC 10806
[18] = tested on: Staphylococcus aureus CCRC 15211
[19] = tested on: Escherichia coli BL21
[20] = tested on: Salmonella enterica subsp. enterica serovar Enteritidis MH91989
[21] = tested on: Escherichia coli JW0013
[22] = tested on: Escherichia coli MC1061
[23] = tested on: Escherichia coli O157:H7
[24] = tested on: Escherichia coli JJ2487
[25] = tested on: Salmonella typhimurium SL1344
[26] = tested on: Escherichia coli J2210
[27] = tested on: Candida parapsilosis CGMCC 2.3989
[28] = tested on: Candida tropicalis CGMCC 2.1975
[29] = tested on: Pseudomonas aeruginosa ATCC 27853
[30] = tested on: Salmonella enterica subsp. enterica serovar Typhimurium ATCC 14028
[31] = tested on: Candida albicans CGMCC 2.2086
[32] = tested on: Escherichia coli UB1005
[33] = tested on: Staphylococcus aureus ATCC 25923
[34] = tested on: Staphylococcus aureus ATCC 29213
[35] = tested on: Salmonella enterica subsp. enterica serovar Typhimurium C77-31
[36] = tested on: Staphylococcus epidermidis ATCC 12228
[37] = tested on: Staphylococcus aureus ATCC 43300
[38] = tested on: Escherichia coli K88
[39] = tested on: Escherichia coli ATCC 25922
[40] = tested on: Escherichia coli 078
[41] = tested on: Escherichia coli K99

SMILES: CC(C)C[C@H](NC(=O)[C@H](CCCN=C(N)N)NC(=O)[C@H](CC(C)C)NC(=O)[C@H](CCCN=C(N)N)NC(=O)[C@H](CC(C)C)NC(=O)[C@H](CCCN=C(N)N)NC(=O)[C@H](CC(C)C)NC(=O)[C@H](CCCN=C(N)N)NC(=O)[C@H](CC(C)C)NC(=O)[C@H](CCCN=C(N)N)NC(=O)[C@H](CC(C)C)NC(=O)[C@H](CCCN=C(N)N)NC(=O)[C@@H](N)CC(C)C)C(=O)N[C@@H](CCCN=C(N)N)C(=O)O [LRLRLRLRLRLRLR]
MIC [1]: 2.97 µM (≈ 5.66 µg/mL)
MIC [2]: 23 µM (≈ 43.8 µg/mL)
MIC [3]: 186 µM (≈ 354 µg/mL)
MIC [4]: ≥ 186 µM
MIC [5]: ≥ 65.7 µM

MIC [6]: 0.61 µM (≈ 0.999 µg/mL)
MIC [7]: ≥ 39 µM
MIC [8]: 1.22 µM (≈ 2 µg/mL)
MIC [9]: 19.5 µM (≈ 32 µg/mL)
MIC [10]: 13.8 µM (≈ 22.6 µg/mL)
MIC [11]: ≥ 78 µM
MIC [12]: 39 µM (≈ 64 µg/mL)
MIC [13]: ≥ 78 µM
MIC [14]: 2.44 µM (≈ 4 µg/mL)
MIC [15]: ≥ 78 µM
MIC [16]: 19.5 µM (≈ 32 µg/mL)
MIC [18]: 19.5 µM (≈ 32 µg/mL)
MIC [19]: 4.88 µM (≈ 8 µg/mL)
SMILES: CC[C@H](C)[C@H](NC(=O)[C@H](CC(N)=O)NC(=O)[C@H](CCCCN)NC(=O)[C@H](CC(C)C)NC(=O)[C@H](CCCCN)NC(=O)[C@@H](N)CC(C)C)C(=O)N[C@H](C(=O)N[C@@H](CO)C(=O)N[C@@H](Cc1c[nH]c2ccccc12)C(=O)N[C@@H](C)C(=O)N[C@@H](CCCCN)C(=O)N[C@@H](CCCCN)C(=O)N[C@H](C(=O)N[C@@H](CC(C)C)C(N)=O)C(C)C)C(C)C [LKLKNIVSWAKKVL]
MIC [17]: 9.76 µM (≈ 16 µg/mL)

MIC [20]: 0.245 µM (≈ 0.6 µg/mL)
MIC [21]: 0.339 µM (≈ 0.83 µg/mL)
MIC [22]: 0.122 µM (≈ 0.3 µg/mL)
MIC [23]: 0.98 µM (≈ 2.4 µg/mL)
MIC [24]: 0.159 µM (≈ 0.39 µg/mL)
MIC [25]: 0.245 µM (≈ 0.6 µg/mL)
MIC [26]: 0.245 µM (≈ 0.6 µg/mL)
SMILES: CC[C@H](C)[C@H](NC(=O)[C@H](CCCN=C(N)N)NC(=O)[C@H](CCCN=C(N)N)NC(=O)[C@@H]1CCCN1C(=O)[C@@H]1CCCN1C(=O)[C@H](CCCN=C(N)N)NC(=O)[C@@H]1CCCN1C(=O)[C@H](CCCN=C(N)N)NC(=O)[C@@H]1CCCN1C(=O)[C@H](CC(C)C)NC(=O)[C@H](Cc1ccc(O)cc1)NC(=O)[C@@H]1CCCN1C(=O)[C@H](CCCN=C(N)N)NC(=O)[C@H](CCCCN)NC(=O)[C@H](CC(=O)O)NC(=O)[C@@H](N)C(C)C)C(=O)N[C@@H](Cc1ccc(O)cc1)C(=O)N[C@@H](CC(N)=O)C(=O)N[C@@H](CCCN=C(N)N)C(N)=O [VDKRPYLPRPRPPRRIYNR]

MIC [27]: ≥ 128 µM
MIC [28]: ≥ 128 µM
MIC [29]: > 128 µM
MIC [30]: > 128 µM
MIC [31]: ≥ 128 µM
MIC [32]: ≥ 128 µM
MIC [33]: > 128 µM
MIC [34]: > 128 µM
MIC [35]: ≥ 128 µM
MIC [36]: > 128 µM
MIC [37]: > 128 µM
MIC [38]: ≥ 128 µM
MIC [39]: > 128 µM
MIC [40]: ≥ 128 µM
MIC [41]: ≥ 128 µM
SMILES: CC[C@H](C)[C@H](NC(=O)[C@H](CCCCN)NC(=O)[C@H](C)NC(=O)[C@H](C)N)C(=O)N[C@H](C(=O)N[C@@H](CC(C)C)C(=O)N[C@@H](CC(N)=O)C(=O)N1CCC[C@H]1C(=O)N[C@@H](CCCCN)C(=O)N[C@@H](Cc1ccccc1)C(=O)N[C@@H](CCCN=C(N)N)C(N)=O)[C@@H](C)CC [AAKIILNPKFR]

MIC [6]: 0.629 µM (≈ 0.999 µg/mL)
MIC [7]: ≥ 80.5 µM
MIC [8]: 1.26 µM (≈ 2 µg/mL)
MIC [9]: ≥ 80.5 µM
MIC [10]: ≥ 80.5 µM
MIC [11]: ≥ 80.5 µM
MIC [12]: 80.5 µM (≈ 128 µg/mL)
MIC [13]: ≥ 80.5 µM
MIC [14]: 5.03 µM (≈ 8 µg/mL)
MIC [15]: ≥ 80.5 µM
MIC [16]: ≥ 80.5 µM
MIC [18]: ≥ 80.5 µM
MIC [19]: 10.1 µM (≈ 16 µg/mL)
SMILES: CC[C@H](C)[C@H](NC(=O)[C@H](CO)NC(=O)[C@H](CCCCN)NC(=O)[C@H](CC(C)C)NC(=O)[C@H](CCCCN)NC(=O)[C@@H](N)CC(C)C)C(=O)N[C@H](C(=O)N[C@@H](CO)C(=O)N[C@@H](Cc1ccc(O)cc1)C(=O)N[C@@H](C)C(=O)N[C@@H](CCCCN)C(=O)N[C@@H](CCCCN)C(=O)N[C@H](C(=O)N[C@@H](CC(C)C)C(N)=O)C(C)C)C(C)C [LKLKSIVSYAKKVL]
MIC [17]: ≥ 40.3 µM

MIC [20]: 0.169 µM (≈ 0.42 µg/mL)
MIC [21]: 0.156 µM (≈ 0.39 µg/mL)
MIC [22]: 0.0602 µM (≈ 0.15 µg/mL)
MIC [23]: 0.666 µM (≈ 1.66 µg/mL)
MIC [24]: 0.169 µM (≈ 0.42 µg/mL)
MIC [25]: 0.156 µM (≈ 0.39 µg/mL)
MIC [26]: 0.12 µM (≈ 0.3 µg/mL)
SMILES: CC[C@H](C)[C@H](NC(=O)[C@H](CCCN=C(N)N)NC(=O)[C@H](CCCN=C(N)N)NC(=O)[C@@H]1CCCN1C(=O)[C@@H]1CCCN1C(=O)[C@H](CCCN=C(N)N)NC(=O)[C@@H]1CCCN1C(=O)[C@H](CCCN=C(N)N)NC(=O)[C@@H]1CCCN1C(=O)[C@H](CCCN=C(N)N)NC(=O)[C@H](Cc1ccc(O)cc1)NC(=O)[C@@H]1CCCN1C(=O)[C@H](CCCN=C(N)N)NC(=O)[C@H](CCCCN)NC(=O)[C@H](CC(=O)O)NC(=O)[C@@H](N)C(C)C)C(=O)N[C@@H](Cc1ccc(O)cc1)C(=O)N[C@@H](CC(N)=O)C(=O)N[C@@H](CCCN=C(N)N)C(N)=O [VDKRPYRPRPRPPRRIYNR]

MIC [1]: 17.5 µM (≈ 49.8 µg/mL)
MIC [2]: 15.4 µM (≈ 43.8 µg/mL)
MIC [3]: 124 µM (≈ 354 µg/mL)
MIC [4]: ≥ 176 µM
MIC [5]: ≥ 44 µM
SMILES: NCCCC[C@H](NC(=O)[C@H](Cc1ccccc1)NC(=O)[C@H](CCCCN)NC(=O)[C@H](CCCCN)NC(=O)[C@H](Cc1ccccc1)NC(=O)[C@H](CCCCN)NC(=O)[C@H](CCCCN)NC(=O)[C@H](Cc1ccccc1)NC(=O)[C@H](CCCCN)NC(=O)[C@H](CCCCN)NC(=O)[C@H](Cc1ccccc1)NC(=O)[C@H](CCCCN)NC(=O)[C@H](CCCCN)NC(=O)[C@H](Cc1ccccc1)NC(=O)[C@H](CCCCN)NC(=O)[C@H](CCCCN)NC(=O)[C@H](Cc1ccccc1)NC(=O)[C@H](CCCCN)NC(=O)[C@H](CCCCN)NC(=O)[C@H](Cc1ccccc1)NC(=O)[C@@H](N)CCCCN)C(=O)O [KFKKFKKFKKFKKFKKFKKFK]
